Data set [1] is described as follows: Bidirectional transport assay across parent MDCK II cell monolayer. Type of data set: in vitro ADME, canine. The conditions noted are these: dog; for efflux ratio at 120 min, 10 μM: MDCK, pH 7.4, 10 μM, Papp B to A / Papp A to B, read-out: Flux ratio (MDCK II) (efflux ratio, ER); for Papp A→B at 120 min, 10 μM / Papp B→A at 120 min, 10 μM: mean ± SE, n = 2. As to the method:
(§1) The Madin‐Darby canine kidney (MDCK II) cell line and MDCK II cells overexpressing multidrug resistance 1 (MDR1) or breast cancer resistance protein (BCRP) were purchased from the Netherlands Cancer Institute (Amsterdam, Netherlands) and SOLVO Biotechnology (Szeged, Hungary), respectively. The cell lines were routinely cultured in Dulbecco's modified Eagle's medium (DMEM) containing 10% fetal bovine serum and 1% penicillin/streptomycin at 37°C in 5% CO2. All cells were seeded in a feeder tray at a density of 3–6 × 10^4 cells/well and grown for 3–4 days. On the day of the transport study, cell monolayers were washed with Hanks' balanced salt solution (HBSS) buffer containing 0.1% BSA (pH 7.4) and incubated at 37°C for 20 min. Artepillin C and drupanin dissolved in DMSO (10 mM) were added to the transport buffer (HBSS containing 10 mM HEPES, 0.2% glucose, 0.1% BSA, pH 7.4) to a final concentration of 10 μM and then loaded into the apical or basolateral chamber. After 120 min of incubation, 150 μL of the aliquots were collected from the donor and receiver chambers and mixed with an equal volume of 50% methanol. After centrifugation at 3000 rpm for 10 min at 4°C, the supernatants were filtered and subjected to LC–MS/MS analysis.
(§2) The in vitro samples were analyzed using HPLC (LC‐20A, Shimadzu, Kyoto, Japan) with a reversed‐phase column (Inertsil ODS‐3, 2.1 × 33 mm, ID. 3 μm, GL Sciences, Tokyo, Japan) held at 40°C. The mobile solvents used were water with 10 mM ammonium acetate (pH 4.0, A) and methanol (B) pumped at a flow rate of 0.4 mL/min. The following gradient was employed: 10%–90% B (0–0.5 min), 90% B (0.5–2.5 min), and 10% B (2.5–4 min). The eluent was monitored using a triple quadrupole mass spectrometer (API 4000, AB Sciex, Framingham, MA, USA) incorporating an electrospray ion source (ESI) operating in the multiple reaction monitoring mode. The ESI source was operated in negative ionization mode at 600°C with a spray voltage of −4.5 kV. The curtain gas (nitrogen), collision gas (nitrogen), nebulizer gas (whole air), and drying gas (whole air) were set at 40, 5, 50, and 70 psi, respectively. […] Artepillin C and drupanin were diluted in 50% methanol to concentrations of 1.6, 3.2, 8, 40, 200, 1000, and 2000 nM and were used as external standards. Sulfaphenazole (0.2 μM) was used as an internal standard.
(§3) The apparent permeability coefficients (Papp) for both directions, from the apical side to the basolateral side (A to B) and from the basolateral side to the apical side (B to A) in the cell monolayer, were calculated using the following equation: (1) Papp=dQ/dt/A×C0 where dQ/dt is the permeation rate (nmol/s), A is the membrane area (cm^2), and C0 is the initial concentration of the compound in the donor compartment (nM). The efflux ratios (ER) in the B‐to‐A and A‐to‐B directions were determined using the following equation: (2) ER=PappBtoA/PappAtoB

Data set [2] deals with T1, MDR1 (P-gp) (Homo sapiens, UniProt P08183).
T1 construct: host or cells: MDCK II (Madin-Darby canine kidney) cells overexpressing MDR1
T1 sequence (P08183 whole entry): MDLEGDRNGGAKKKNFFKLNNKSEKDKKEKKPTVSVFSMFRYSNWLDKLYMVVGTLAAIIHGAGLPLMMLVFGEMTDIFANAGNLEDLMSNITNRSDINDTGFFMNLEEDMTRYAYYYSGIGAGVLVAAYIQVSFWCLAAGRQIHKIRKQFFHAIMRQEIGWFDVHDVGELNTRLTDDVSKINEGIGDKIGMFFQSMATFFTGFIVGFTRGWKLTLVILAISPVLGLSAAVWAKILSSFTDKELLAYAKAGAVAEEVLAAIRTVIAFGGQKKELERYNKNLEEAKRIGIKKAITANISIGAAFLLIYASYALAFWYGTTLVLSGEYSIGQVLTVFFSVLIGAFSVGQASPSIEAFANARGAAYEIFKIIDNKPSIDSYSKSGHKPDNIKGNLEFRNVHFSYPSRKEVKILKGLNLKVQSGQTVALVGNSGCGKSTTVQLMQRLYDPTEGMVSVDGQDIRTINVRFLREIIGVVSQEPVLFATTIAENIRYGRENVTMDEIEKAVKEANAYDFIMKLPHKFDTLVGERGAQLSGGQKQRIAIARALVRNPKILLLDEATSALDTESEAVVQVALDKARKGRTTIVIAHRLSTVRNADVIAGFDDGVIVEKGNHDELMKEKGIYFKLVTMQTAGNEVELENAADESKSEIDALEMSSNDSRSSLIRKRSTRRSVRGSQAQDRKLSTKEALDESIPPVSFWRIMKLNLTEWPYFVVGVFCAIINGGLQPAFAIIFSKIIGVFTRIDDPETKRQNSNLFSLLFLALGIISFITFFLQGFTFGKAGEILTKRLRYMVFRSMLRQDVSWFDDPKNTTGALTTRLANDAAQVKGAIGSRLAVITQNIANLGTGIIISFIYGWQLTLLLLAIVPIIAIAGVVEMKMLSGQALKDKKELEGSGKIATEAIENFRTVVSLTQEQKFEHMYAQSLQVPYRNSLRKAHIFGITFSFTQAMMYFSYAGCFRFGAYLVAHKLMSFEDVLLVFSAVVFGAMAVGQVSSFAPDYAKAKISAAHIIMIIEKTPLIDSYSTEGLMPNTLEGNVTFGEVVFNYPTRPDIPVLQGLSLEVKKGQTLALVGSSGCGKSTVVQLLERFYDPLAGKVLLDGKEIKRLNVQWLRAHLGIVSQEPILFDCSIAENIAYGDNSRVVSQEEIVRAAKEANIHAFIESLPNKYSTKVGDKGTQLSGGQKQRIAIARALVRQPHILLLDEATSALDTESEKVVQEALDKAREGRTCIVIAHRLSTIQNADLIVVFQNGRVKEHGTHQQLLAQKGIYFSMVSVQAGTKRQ
Nature of the data set: Bidirectional transport assay across MDCK II-MDR1 cell monolayer. The class given is in vitro ADME. The settings on record: dog, MDCK-MDR1, pH 7.4. The method, then: as §1, §2, §3
(§4) Net flux ratios were calculated by dividing the ER obtained from MDCK II‐MDR1 (or BCRP) cells by that obtained from the parent MDCK II cells.

Data set [3] addresses T2, BCRP (Homo sapiens, UniProt Q9UNQ0).
T2 construct: host or cells: MDCK II (Madin-Darby canine kidney) cells overexpressing BCRP
T2 sequence (Q9UNQ0 1-655): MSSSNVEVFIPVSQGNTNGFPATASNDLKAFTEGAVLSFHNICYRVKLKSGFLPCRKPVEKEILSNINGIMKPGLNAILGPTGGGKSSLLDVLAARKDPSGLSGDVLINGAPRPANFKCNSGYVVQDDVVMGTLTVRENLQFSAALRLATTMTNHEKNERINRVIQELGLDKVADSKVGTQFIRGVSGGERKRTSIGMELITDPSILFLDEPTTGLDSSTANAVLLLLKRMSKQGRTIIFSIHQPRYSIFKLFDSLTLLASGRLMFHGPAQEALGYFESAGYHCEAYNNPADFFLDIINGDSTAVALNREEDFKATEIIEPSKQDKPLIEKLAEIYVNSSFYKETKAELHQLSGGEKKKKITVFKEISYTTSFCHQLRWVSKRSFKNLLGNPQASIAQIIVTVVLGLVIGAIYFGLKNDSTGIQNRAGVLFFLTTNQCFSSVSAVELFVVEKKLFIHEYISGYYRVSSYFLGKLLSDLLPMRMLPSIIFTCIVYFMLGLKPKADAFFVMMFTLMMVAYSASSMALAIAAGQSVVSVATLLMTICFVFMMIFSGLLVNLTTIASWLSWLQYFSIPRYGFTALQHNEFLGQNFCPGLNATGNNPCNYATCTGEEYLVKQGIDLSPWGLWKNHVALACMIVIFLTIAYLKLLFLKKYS
Nature of the data set: Bidirectional transport assay across MDCK II-BCRP cell monolayer. The conditions noted are these: dog, pH 7.4. The class given is in vitro ADME. As to the method: as §1, §2, §3, §4

Data set [4] concerns MDCK II cell monolayer. Nature of the data set: Bidirectional transport assay across parent MDCK II cell monolayer. Type of data set: in vitro ADME, canine. The conditions noted are these: 10 μM; for Papp MDCK II A to B / Papp MDCK II B to A: 120 min, mean ± SE, n = 2. As to the method:
as §1, §2, §3

Where [5] appears, read: MDCK-MDR1, pH 7.4, parent cells of the MDR1 experiment (Table 2).
The mark [6] stands for this setting: pH 7.4, parent cells of the BCRP experiment (Table 3).
[7] abbreviates: 10 μM, 120 min, mean ± SE, n = 2.
[8] abbreviates: parent cells of the BCRP experiment (Table 3).
The mark [9] stands for this setting: parent cells of the MDR1 experiment (Table 2).

Read-outs that look alike come from different tables or passages of the source.

As a reminder, the Papp A→B is the apparent permeability from the apical to the basolateral side of a cell layer. The term Papp B→A denotes the apparent permeability from the basolateral to the apical side of a cell layer.

For `CC(C)=CCc1cc(/C=C/C(=O)O)ccc1O` [drupanin], the efflux ratio at 120 min, 10 μM in data set [1] (Table 2 experiment) is 0.9; in data set [1] (Table 3 experiment) it was 0.8; in data set [2] (read-out: Flux ratio (MDCK II‐MDR1) (efflux ratio, ER)), 0.8; in data set [3] (read-out: Flux ratio (MDCK II‐BCRP) (efflux ratio, ER)) it was 15.7. In addition, the Papp A→B at 120 min, 10 μM came out at 11.1 ± 0.2 ×10⁻⁶ cm/s in data set [1] (setting [5]), 11.6 ± 0.1 ×10⁻⁶ cm/s in data set [1] (setting [6]), 13.3 ± 1.4 ×10⁻⁶ cm/s in data set [2] (setting [7]) and 1.3 ± 0.1 ×10⁻⁶ cm/s in data set [3] (setting [7]). Besides, the Papp B→A at 120 min, 10 μM in data set [1] (setting [5]) was 9.9 ± 0.2 ×10⁻⁶ cm/s; in data set [1] (setting [6]) it was 8.9 ± 0.4 ×10⁻⁶ cm/s; in data set [2] (setting [7]), 11.2 ± 0.2 ×10⁻⁶ cm/s; in data set [3] (setting [7]), 20.9 ± 0.1 ×10⁻⁶ cm/s.

As for `CC(C)=CCc1cc(/C=C/C(=O)O)cc(CC=C(C)C)c1O` [artepillin C], in data set [4] (setting [8]), the “Papp MDCK II A to B” value is 13.0 ± 0.8 10^−6 cm/s and the “Papp MDCK II B to A” value is 10.8 ± 0.1 10^−6 cm/s. Besides, in data set [4] (setting [9]), the “Papp MDCK II A to B” value is given as 14.0 ± 0.7 10^−6 cm/s and the “Papp MDCK II B to A” value is 11.2 ± 1.2 10^−6 cm/s. Also, the “Flux ratio (MDCK II) (efflux ratio, ER)” value in data set [4] (Papp B to A / Papp A to B, Table 2 experiment) came to 0.8.

Source of the values: paper PMC11266932, “Enhanced absorption of prenylated cinnamic acid derivatives from Brazilian green propolis by turmeric in humans and rats” (Food Science & Nutrition, 2024).
